Measured values: PubChem BioAssay AID1963978 (Molecular Pharmacology Branch, DTP, NCI, 2024)

Test system: 616215-338-R-J1-PDC spheroids with HUVEC/MSC, viability
Assay: Anticancer human tumor 616215-338-R-J1-PDC patient-derived colon adenocarcinoma cell line growth inhibition [PI3K]
Conditions: for IC50: curve of first compound; for viability, T/C: stronger effect = lower value
Outline: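 Three cell types, namely tumor cells, endothelial cells and mesenchymal stem cells, formed each spheroid. Combinations with four PI3K inhibitors were screened at clinically achievable concentrations decreasing by half-log, and spheroid viability was recorded.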

[1] = second compound 0.0316 µM, first compound 0.0316 µM
[2] = second compound 0.0316 µM, first compound 0.1 µM
[3] = second compound 0.0316 µM, first compound 0.316 µM
[4] = second compound 0.0316 µM, first compound 1 µM
[5] = second compound 0.0316 µM, first compound 3.16 µM
[6] = second compound 0.0316 µM, first compound 10 µM
[7] = second compound 0.1 µM, first compound 0.0316 µM
[8] = second compound 0.1 µM, first compound 0.1 µM
[9] = second compound 0.1 µM, first compound 0.316 µM
[10] = second compound 0.1 µM, first compound 1 µM
[11] = second compound 0.1 µM, first compound 3.16 µM
[12] = second compound 0.1 µM, first compound 10 µM
[13] = second compound 0.316 µM, first compound 0.0316 µM
[14] = second compound 0.316 µM, first compound 0.1 µM
[15] = second compound 0.316 µM, first compound 0.316 µM
[16] = second compound 0.316 µM, first compound 1 µM
[17] = second compound 0.316 µM, first compound 3.16 µM
[18] = second compound 0.316 µM, first compound 10 µM
[19] = second compound 1 µM, first compound 0.0316 µM
[20] = second compound 1 µM, first compound 0.1 µM
[21] = second compound 1 µM, first compound 0.316 µM
[22] = second compound 1 µM, first compound 1 µM
[23] = second compound 1 µM, first compound 3.16 µM
[24] = second compound 1 µM, first compound 10 µM
[25] = second compound 3.16 µM, first compound 0.0316 µM
[26] = second compound 3.16 µM, first compound 0.1 µM
[27] = second compound 3.16 µM, first compound 0.316 µM
[28] = second compound 3.16 µM, first compound 1 µM
[29] = second compound 3.16 µM, first compound 3.16 µM
[30] = second compound 3.16 µM, first compound 10 µM
[31] = second compound 10 µM, first compound 0.0316 µM
[32] = second compound 10 µM, first compound 0.1 µM
[33] = second compound 10 µM, first compound 0.316 µM
[34] = second compound 10 µM, first compound 1 µM
[35] = second compound 10 µM, first compound 3.16 µM
[36] = second compound 10 µM, first compound 10 µM
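Also: spheroids exposed to agents for seven days before the viability read.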

Compound: CNC(=O)c1ccc(N2C(=S)N(c3ccc(C#N)c(C(F)(F)F)c3)C(=O)C2(C)C)cc1F + COc1c(OCCCN2CCOCC2)ccc2c3n(c(=NC(=O)c4cnc(N)nc4)nc12)CCN3
- IC50 (second compound 0.00316 µM): > 10 µM
- IC50 (second compound 0.01 µM): > 10 µM
- IC50 (second compound 0.0316 µM): > 10 µM
- IC50 (second compound 0.1 µM): > 10 µM
- IC50 (second compound 0.316 µM): < 0.0316 µM
- IC50 (second compound 1 µM): < 0.0316 µM
- viability, T/C (second compound 0.00316 µM, first compound 0.0316 µM): 92.8%
- viability, T/C (second compound 0.00316 µM, first compound 0.1 µM): 92.1%
- viability, T/C (second compound 0.00316 µM, first compound 0.316 µM): 95.9%
- viability, T/C (second compound 0.00316 µM, first compound 1 µM): 92%
- viability, T/C (second compound 0.00316 µM, first compound 3.16 µM): 99%
- viability, T/C (second compound 0.00316 µM, first compound 10 µM): 93%
- viability, T/C (second compound 0.01 µM, first compound 0.0316 µM): 98.7%
- viability, T/C (second compound 0.01 µM, first compound 0.1 µM): 108%
- viability, T/C (second compound 0.01 µM, first compound 0.316 µM): 103%
- viability, T/C (second compound 0.01 µM, first compound 1 µM): 93.3%
- viability, T/C (second compound 0.01 µM, first compound 3.16 µM): 111%
- viability, T/C (second compound 0.01 µM, first compound 10 µM): 87%
- viability, T/C [1]: 103%
- viability, T/C [2]: 98.1%
- viability, T/C [3]: 99.8%
- viability, T/C [4]: 105%
- viability, T/C [5]: 96.5%
- viability, T/C [6]: 89.1%
- viability, T/C [7]: 97.4%
- viability, T/C [8]: 89.6%
- viability, T/C [9]: 91.5%
- viability, T/C [10]: 107%
- viability, T/C [11]: 84.6%
- viability, T/C [12]: 67%
- viability, T/C [13]: 50.8%
- viability, T/C [14]: 45.3%
- viability, T/C [15]: 38.1%
- viability, T/C [16]: 43.1%
- viability, T/C [17]: 41.1%
- viability, T/C [18]: 29.2%
- viability, T/C [19]: 21.8%
- viability, T/C [20]: 22.5%
- viability, T/C [21]: 22.8%
- viability, T/C [22]: 22%
- viability, T/C [23]: 25.6%
- viability, T/C [24]: 14.4%

Compound: C#Cc1c(F)ccc2cc(O)cc(-c3ncc4c(N5CC6CCC(C5)N6)nc(OCC56CCCN5CC(F)C6)nc4c3F)c12 (stereo unspecified) + Cc1nc(NC(=O)N2CCCC2C(N)=O)sc1-c1ccnc(C(C)(C)C(F)(F)F)c1
- IC50 (second compound 0.0316 µM): > 10 µM
- IC50 (second compound 0.1 µM): > 10 µM
- IC50 (second compound 0.316 µM): > 10 µM
- IC50 (second compound 1 µM): > 10 µM
- IC50 (second compound 3.16 µM): > 10 µM
- IC50 (second compound 10 µM): 9.14 µM
- viability, T/C [1]: 108%
- viability, T/C [2]: 106%
- viability, T/C [3]: 102%
- viability, T/C [4]: 93.3%
- viability, T/C [5]: 82%
- viability, T/C [6]: 67.6%
- viability, T/C [7]: 97.2%
- viability, T/C [8]: 104%
- viability, T/C [9]: 100%
- viability, T/C [10]: 104%
- viability, T/C [11]: 96.1%
- viability, T/C [12]: 54.5%
- viability, T/C [13]: 95.3%
- viability, T/C [14]: 99.2%
- viability, T/C [15]: 96.4%
- viability, T/C [16]: 84.8%
- viability, T/C [17]: 86.3%
- viability, T/C [18]: 54.9%
- viability, T/C [19]: 110%
- viability, T/C [20]: 101%
- viability, T/C [21]: 91.2%
- viability, T/C [22]: 89.9%
- viability, T/C [23]: 74.6%
- viability, T/C [24]: 63.6%
- viability, T/C [25]: 112%
- viability, T/C [26]: 104%
- viability, T/C [27]: 93.8%
- viability, T/C [28]: 85.1%
- viability, T/C [29]: 78.1%
- viability, T/C [30]: 53%
- viability, T/C [31]: 88.3%
- viability, T/C [32]: 93.2%
- viability, T/C [33]: 93.5%
- viability, T/C [34]: 88.9%
- viability, T/C [35]: 82.5%
- viability, T/C [36]: 47.1%

Compound: CC1(C)CCC(CN2CCN(c3ccc(C(=O)NS(=O)(=O)c4ccc(NCC5CCOCC5)c([N+](=O)[O-])c4)c(Oc4cnc5[nH]ccc5c4)c3)CC2)=C(c2ccc(Cl)cc2)C1 + CC(Nc1ncnc2nc[nH]c12)c1cc2cccc(Cl)c2c(=O)n1-c1ccccc1
- IC50 (second compound 0.0316 µM): 4.56 µM
- IC50 (second compound 0.1 µM): 4.67 µM
- IC50 (second compound 0.316 µM): 4.79 µM
- IC50 (second compound 1 µM): 4.99 µM
- IC50 (second compound 3.16 µM): 5.14 µM
- IC50 (second compound 10 µM): 5.53 µM
- viability, T/C [1]: 98.3%
- viability, T/C [2]: 105%
- viability, T/C [3]: 110%
- viability, T/C [4]: 104%
- viability, T/C [5]: 71.3%
- viability, T/C [6]: 4.22%
- viability, T/C [7]: 109%
- viability, T/C [8]: 103%
- viability, T/C [9]: 101%
- viability, T/C [10]: 96.7%
- viability, T/C [11]: 74.2%
- viability, T/C [12]: 3.61%
- viability, T/C [13]: 107%
- viability, T/C [14]: 103%
- viability, T/C [15]: 107%
- viability, T/C [16]: 103%
- viability, T/C [17]: 76.6%
- viability, T/C [18]: 2.7%
- viability, T/C [19]: 101%
- viability, T/C [20]: 107%
- viability, T/C [21]: 108%
- viability, T/C [22]: 110%
- viability, T/C [23]: 80.8%
- viability, T/C [24]: 2.87%
- viability, T/C [25]: 108%
- viability, T/C [26]: 111%
- viability, T/C [27]: 99.2%
- viability, T/C [28]: 123%
- viability, T/C [29]: 85%
- viability, T/C [30]: 2.42%
- viability, T/C [31]: 118%
- viability, T/C [32]: 105%
- viability, T/C [33]: 105%
- viability, T/C [34]: 105%
- viability, T/C [35]: 94.9%
- viability, T/C [36]: 2.49%
